Reference: US20070265240A1, “Sequence Selective Pyrrole and Imidazole Polyamide Metallocomplexes” (priority 2003, published 2007)

Columns and labels:
[1] = test system: relaxed and negatively supercoiled pUC19 DNA; settings: value reported for cisplatin; cited from earlier work
[2] = test system: relaxed and negatively supercoiled pUC19 DNA; test: DNA unwinding experiment by gel electrophoresis; format: binding; settings: pUC19 plasmid incubated 1.5 hr at 37° C., rb 0-0.074
Protocol: Lanes: 0 Control rb=0; 1, rb=0.008; 2, rb=0.0.016; 3, rb=0.025; 4, rb=0.033; 5, rb=0.041; 6, rb=0.049; 7, rb=0.057; 8, rb=0.066; 9, rb=0.074.
The unwinding angle was determined to be 13° for this experiment, which is the same as that reported for cisplatin (13°). The plasmid was incubated with Im/Py/Py-Pt for 1.5 hr at 37° C. Lanes: 0 Control rb=0; 1, rb=0.008; 2, rb=0.0.016; 3, rb=0.025; 4, rb=0.033; 5, rb=0.041; 6, rb=0.049; 7, rb=0.057; 8, rb=0.066; 9, rb=0.074. The top bands correspond to the form of nicked plasmid and the bottom bands to the closed, negatively supercoiled plasmid shown in FIG. 4.

[3] = test system: d(CATTGAGAGAC)2 (double mismatch site); test: CD titration, affinity constant for double-mismatch duplex; format: binding; settings: derived from CD titrations; 5 μM duplex DNA, 10 mM sodium phosphate pH 7.0, 40 mM NaCl, room temperature
Protocol: (§1) The changes are generally monitored until saturation is reached. The equilibrium constant can be determined using standard techniques, such as Scatchard plot, the McGhee Von Hippel model, or least squares, for analysis.
(§2) All CD measurements were recorded on a Jasco J-810 CD spectropolarimeter at room temperature and cell length of 1 cm. Titrations were performed by incrementally adding aliquots of Im/Py/Py-Pt to a 2600 μL solution of 5 μM duplex DNA. After each addition, an average CD spectrum from 240 to 400 nm (20 accumulations) was recorded. DNA concentration was 5 μM. The concentration of Im/Py/Py-Pt ranged from 0 to 10 μM. Solution conditions were 10 mM sodium phosphate (pH 7.0) and 40 mM NaCl.

[4] = test system: d(CATTGACAGAC)2 (single mismatch site); test: CD titration, affinity constant for single-mismatch duplex; format: binding; settings: derived from CD titrations; 5 μM duplex DNA, 10 mM sodium phosphate pH 7.0, 40 mM NaCl, room temperature
Protocol: as §1, §2

[5] = test system: d(CATTGTCAGAC)2 (target site); test: CD titration, affinity constant for target-site duplex; format: binding; settings: derived from CD titrations; 5 μM duplex DNA, 10 mM sodium phosphate pH 7.0, 40 mM NaCl, room temperature
Protocol: as §1, §2

[6] = test system: recombinant pSP64 derivative; test: In vitro transcription assay (inhibition of RNA synthesis); format: biochemical; settings: increasing molar concentration; after 12 hour platination in the dark at 4° C.; 40 mM Tris-HCl pH 7.9
Protocol: FIG. 5—In vitro Transcription Assay “trans-Im/Py/Py-[CONH(CH2)2—NH2)Pt(NH3)2Cl” (“DJ1953-2”) The Inhibition of RNA synthesis by DJ1953-2 was assessed using a recombinant pSP64 derivative. Incubations were carried out in 40 mM Tris-HCl (pH 7.9), 6 mM MgCl2, 2 mM spermidine, 10 mM NaCl. Lane (1) 100-500 bases RNA marker; (2) to (8) increasing molar concentration of DJ1953-2. […] Experiments were conducted after 12 hour platination reactions (in the dark at 4° C.).
The Inhibition of RNA synthesis by DJ1953-2 was assessed using a recombinant pSP64 derivative. Incubations were carried out in 40 mM Tris-HCl (pH 7.9), 6 mM MgCl2, 2 mM spermidine, 10 mM NaCl. Lane (1) 100-500 bases RNA marker; Lanes (2) to (8) increasing molar concentration of DJ1953-2. […] Experiments were conducted after 12 hour platination reactions (in the dark at 4° C.).

Compound	unwinding angle (reported) [1] [°]	unwinding angle [2] [°]	apparent first-order affinity constant K for binding site d(CATTGAGAGAC)2 [3]	apparent first-order affinity constant K for binding site d(CATTGACAGAC)2 [4]	apparent first-order affinity constant K for binding site d(CATTGTCAGAC)2 [5]	inhibition of RNA synthesis (full-length transcript, 335 bases) [6]
N.N.[Cl][Pt][Cl] [cisplatin, cis-diamminedichloroplatinum(II)]	13	–	–	–	–	–
trans-Im/Py/Py-Pt(Cl)(NH3)2	–	13	–	–	–	–
Cn1cc(NC(=O)c2cc(NC(=O)c3nccn3C)cn2C)cc1C(=O)NCCCCCC[NH][Pt]([NH2])([NH2])[Cl] [DJ-1953-6, trans-Im/Py/Py-[CONH(CH2)6—NH2)Pt(NH3)2Cl]	–	–	1.3 × 10^6 (0.1) M^−1	4.4 × 10^5 (0.2) M^−1	2.4 × 10^6 (0.1) M^−1	–
tans-Im/Py/Py-[CONH(CH2)2—NH2)Pt(NH3)2Cl [DJ-1953-2]	–	–	3.0 × 10^5 (0.1) M^−1	5.6 × 10^5 (0.2) M^−1	1.2 × 10^6 (0.1) M^−1	inhibition of the full-length transcript (FLT) can be seen
